Patent US10829506B2, “Amino- or ammonium-containing sulfonic acid, phosphonic acid and carboxylic acid derivatives and their medical use” (GRI Bio, Inc., priority 2011, dated 2020)
Read-outs that look alike come from different tables or passages of the source.

Tests used:
RBL-2H3 cells [1] = assay: Maximum tolerated concentration (cytotoxicity by lactate dehydrogenase release); assay type: cell-based, rat
Description: A commercially available cytotoxicity test was used (Promega Cytotox-One cat. #67891).
The safety index (SI) of a test compound Is the ratio between the maximum tolerated concentration and the 1C50 and is used as a measure of the relative safety of the test compound.

RBL-2H3 cells [2] = assay: Inhibition of mast cell degranulation (β-hexosaminidase release); assay type: cell-based, rat; conditions: for IC50: RBL-2H3 cells sensitized with anti-DNP IgE, triggered with DNP-HSA, 1 h preincubation
Description: Mast cells are key effector cells involved in allergic and inflammatory diseases, and the Rat Basophilic Leukemia clone 2H3 (RBL-2H3) cell line is a commonly used model of allergen dependent immune modulator release (degranulation) in mast cells. On their surface, they express the high affinity receptor for IgE (FcεRI). Upon binding of antigen-specific IgE to the receptor, cells become sensitized to the IgE specific antigen (allergen). When IgE-sensitized cells then encounter multivalent antigen, the antigen clusters IgE-FcεRI complexes and initiates a signal transduction cascade that leads to degranulation, that is, the release of inflammatory mediators, such as cytokines, eicosanoids, histamine and enzymes. The assay can be used as a screening method to identify immune-modulating compounds, in particular compounds useful in the medical management of allergic and inflammatory diseases and asthma, β-hexosaminidase was previously shown to be released with the same kinetics as histamine (Schwartz et al., J Immunology; 123:1445-1450 (1979)), thus offering a simple means to monitor degranulation. The RBL-2H3 cell line has been successfully used to identify compounds with anti-allergic activity (Choo et al. Planta Med., 69:518-522 (2003)).
Cell Culture: RBL-2H3 cells obtained from the German Collection of Microorganisms and Cell Cultures (ACC312) (Braunschweig, Germany) were maintained in 70% Minimum Essential Medium with Earle's Salts, 20% RPMI 1640 Medium, 10% FBS and 2 mM l-glutamine in 95% air/5% CO2 at 37° C. and routinely checked for mycoplasma contamination. Cells were passaged every 3-4 days; after washing cells once with 35 ml PBS cells were incubated 8 min with 5 ml 0.05% Trypsin-EDTA solution at 37° C. Cells were removed from the incubator, 15 ml culture medium was added and cells were resuspended by repeated pipetting.
Cell seeding: cells were harvested with Trypsin-EDTA as described and 50-100 μl cell suspension seeded Into Costar CellBind 24 well cluster plates (no. 3337). Plates were kept for 30 min at RT under the sterile hood before being transferred to the incubator. Cells were used within one or two days after seeding.
For sensitization, cells for immediate use were sensitized 6-12 h after plating; cells to be used the following day were sensitized 26-38 h after plating. Culture plates were removed from the incubator and checked for cell growth and contamination. The medium was discarded and cells were sensitized with anti-DNP IgE (0.4 μg/ml) in 0.4 ml culture medium overnight. Following overnight sensitization, cells were washed with 0.8 ml pre-warmed TyB and 0.38 ml test compound or vehicle control (supplemented or not with 1% FBS) were added to duplicate wells. Samples were adjusted to contain 1% vehicle for test compounds dissolved in organic solvents. Cells were incubated for 1 h at 37° C. At the end of the incubation period, cells were routinely stimulated with 20 μl DNP-HSA (2 μg/ml; final concentration 0.1 μg/ml) diluted in TyB and cells were incubated for 15 min at 37° C. Alternatively, cells were stimulated with 20 μl […] (final concentration 0.25 μM) or 20 nM […] (final concentration 0.25 μM), both in the absence or presence of 20 nM PMA (final concentration).
Plates were removed from the incubator and immediately centrifuged at 4° C. for 5 min at 250×g and transferred to an ice bath. Aliquots of supernatants, 25 μl, were transferred to 96-well plates. Remaining supernatant was aspirated from control wells and cells were lysed in […] lysis buffer for 5 min at RT on an orbital shaker at 450 rpm under non-sterile conditions. After lysis, 25 μl aliquots of lysates were transferred to 96-well plates.
MUG substrate solution, 100 μl, were added to supernatant and lysate samples and plates were incubated 30 min at 37° C. The reaction was terminated by addition of 150 μl stop solution. Fluorescence was measured at 365 nm excitation and 440 nm emission wavelengths. […]

[3] = highest concentration not causing cytotoxicity, LDH release
[4] = Rattus norvegicus, 25 μM, RBL-2H3 cells
[5] = ratio between maximum tolerated concentration and IC50

CCCCCCCCCCCCCC[N@+]1(CCCS(=O)(=O)[O-])CCC[C@H](C(=O)N(CC)CC)C1 (racemic) [Compound 2c, Trans-N-Tetradecyl-N-(3-Sulfonatopropyl)-3-Diethylaminocarbonyl-Piperidinium]
MTC (maximum tolerated concentration) (RBL-2H3 cells [1]; [3]): 100 µM | inhibition at 25 µM (RBL-2H3 cells [2]; [4]): 50%

CCCCCCCCCCCCCCN(C)CCCS(=O)(=O)O [Compound 1b, 3-(N-Methyltetracylammonio)Propanesulfonate]
MTC (maximum tolerated concentration) (RBL-2H3 cells [1]): 100 µM | SI (safety index, ratio MTC/IC50) (RBL-2H3 cells [1]): 23.3 | IC50 (RBL-2H3 cells [2]): 4.3 µM

CCCCCCCCCCCCCC[N+](C)(C)CCS(=O)(=O)[O-] [Compound 1d, 2-(N,N-Dimethyltetradecylammonio)Ethanesulfonate]
MTC (maximum tolerated concentration) (RBL-2H3 cells [1]; [3]): 100 µM | SI (safety index, ratio MTC/IC50) (RBL-2H3 cells [1]; [5]): 25.6 | IC50 (RBL-2H3 cells [2]; Rattus norvegicus): 3.9 µM

CCCCCCCCCCCCCC[N+](C)(C)CCCCS(=O)(=O)[O-] [Compound 1e, 4-(N1N-Dimethylmyristylammonio)Butanesulfonate]
MTC (maximum tolerated concentration) (RBL-2H3 cells [1]): 150 µM | SI (safety index, ratio MTC/IC50) (RBL-2H3 cells [1]): 40.5 | IC50 (RBL-2H3 cells [2]): 3.7 µM

CCCCCCCCCCCCCC[N+](C)(C)CC(CC)CS(=O)(=O)[O-] (centres unmarked) [Compound 1f, 2-((Dimethyl(Tetradecyl)Ammonio)Methyl)Butane-1-Sulfonate]
MTC (maximum tolerated concentration) (RBL-2H3 cells [1]; [3]): 75 µM | SI (safety index, ratio MTC/IC50) (RBL-2H3 cells [1]; [5]): 18.8 | IC50 (RBL-2H3 cells [2]; Rattus norvegicus): 4 µM

CCCCCCCCCCCCCCCCCC[N+](C)(C)CCCS(=O)(=O)[O-] [Compound 1g, 3-(N,N-Dimethyloctadecylammonio)Propanesulfonate]
MTC (maximum tolerated concentration) (RBL-2H3 cells [1]; [3]): 50 µM | SI (safety index, ratio MTC/IC50) (RBL-2H3 cells [1]; [5]): 5.3 | IC50 (RBL-2H3 cells [2]; Rattus norvegicus): 9.5 µM

CCCCCCCCCCCCCCCC[N+](C)(C)CCCS(=O)(=O)[O-] [Compound 1h, 3-(N,N-dimethyIpalmitylammonio)propansulfonate]
MTC (maximum tolerated concentration) (RBL-2H3 cells [1]): 50 µM | SI (safety index, ratio MTC/IC50) (RBL-2H3 cells [1]): 13.5 | IC50 (RBL-2H3 cells [2]): 3.7 µM

CCCCCCCCCCCC[N+](C)(C)CCCS(=O)(=O)[O-] [Compound 1i, 3-(N,N-dimethyldodecyl-ammonio) propanesulfonate]
MTC (maximum tolerated concentration) (RBL-2H3 cells [1]): 200 µM | SI (safety index, ratio MTC/IC50) (RBL-2H3 cells [1]): 48.8 | IC50 (RBL-2H3 cells [2]): 4.1 µM

CCCCCCCCCCCCCC[N+](C)(C)CC(=O)[O-] [Compound 1j, N-Tetradecyl-N,N-Dimethylglycine]
MTC (maximum tolerated concentration) (RBL-2H3 cells [1]; [3]): 75 µM | SI (safety index, ratio MTC/IC50) (RBL-2H3 cells [1]; [5]): 14.7 | IC50 (RBL-2H3 cells [2]): 5.1 µM

CCCCCCCCCCCCCC[N+](C)(C)CCC(=O)[O-] [Compound 1k, 3-(Dimethyl(Tetradecyl)Ammonio)Propanoate]
MTC (maximum tolerated concentration) (RBL-2H3 cells [1]; [3]): 100 µM | SI (safety index, ratio MTC/IC50) (RBL-2H3 cells [1]; [5]): 18.9 | IC50 (RBL-2H3 cells [2]; Rattus norvegicus): 5.3 µM

CCCCCCCCCCCC[N+](C)(C)CCC(=O)[O-] [Compound 1m, 3-(Dimethyl(Dodecyl)Ammonio)Propanoate]
MTC (maximum tolerated concentration) (RBL-2H3 cells [1]; [3]): 100 µM | inhibition at 25 µM (RBL-2H3 cells [2]; [4]): 73%

CCCCCCCCCCCCCCN(C)CCCC(=O)O [Compound 1n, 4-(Methyl(Tetradecyl)Ammonio)Butanoate]
MTC (maximum tolerated concentration) (RBL-2H3 cells [1]; [3]): 100 µM | SI (safety index, ratio MTC/IC50) (RBL-2H3 cells [1]; [5]): 12.5 | IC50 (RBL-2H3 cells [2]; Rattus norvegicus): 8 µM

CCCCCCCCCCCCCC[N+](C)(C)CCCC(=O)[O-] [Compound 1o, 4-(Dimethyl(Tetradecyl)Ammonio)Butanoate]
MTC (maximum tolerated concentration) (RBL-2H3 cells [1]; [3]): 100 µM | inhibition at 25 µM (RBL-2H3 cells [2]; [4]): 65%

CCCCCCCCCCCC[N+](C)(C)CC(=O)[O-] [Compound 1p, N-Dodecyl-N,N-Dimethylglycine]
MTC (maximum tolerated concentration) (RBL-2H3 cells [1]): 100 µM | Inhibition of degranulation: % inhibition at 25 μM (RBL-2H3 cells [2]; 25 μM, RBL-2H3 cells): 50%

CCCCCCCCCCCCN(C)CCS(=O)(=O)O [Compound 1q, 2-(N-Methyldodecylammonio)Ethanesulfonate]
MTC (maximum tolerated concentration) (RBL-2H3 cells [1]; [3]): 200 µM | SI (safety index, ratio MTC/IC50) (RBL-2H3 cells [1]; [5]): 22.7 | IC50 (RBL-2H3 cells [2]; Rattus norvegicus): 8.8 µM

CCCCCCCCCCCC[N+](C)(C)CCS(=O)(=O)[O-] [Compound 1r, 2-(N,N-Dimethyldodecylammonio)Ethanesulfonate]
MTC (maximum tolerated concentration) (RBL-2H3 cells [1]; [3]): 200 µM | SI (safety index, ratio MTC/IC50) (RBL-2H3 cells [1]; [5]): 47.6 | IC50 (RBL-2H3 cells [2]; Rattus norvegicus): 4.2 µM

CCCCCCCCCCCCCCN(C)CCS(=O)(=O)O [Compound 1s, 2-(N-Methyltetradecylammonio)Ethanesulfonate]
MTC (maximum tolerated concentration) (RBL-2H3 cells [1]; [3]): 100 µM | SI (safety index, ratio MTC/IC50) (RBL-2H3 cells [1]; [5]): 17.9 | IC50 (RBL-2H3 cells [2]; Rattus norvegicus): 5.6 µM

CCCCCCCCCCCC[N+](C)(C)CCCP(=O)(O)O [Compound 1t, 3-(N,N-Dimethyldodecylammonio)Propylphosphonic Acid]
MTC (maximum tolerated concentration) (RBL-2H3 cells [1]; [3]): 200 µM | SI (safety index, ratio MTC/IC50) (RBL-2H3 cells [1]; [5]): 32.8 | IC50 (RBL-2H3 cells [2]): 6.1 µM

CCCCCCCCCCCCCCN(C)CCCP(=O)(O)O [Compound 1u, 3-(N-Methyl-N-Tetradecylamino)Propylphosphonic Acid (Betaine)]
MTC (maximum tolerated concentration) (RBL-2H3 cells [1]; [3]): 200 µM | SI (safety index, ratio MTC/IC50) (RBL-2H3 cells [1]; [5]): 33.9 | IC50 (RBL-2H3 cells [2]): 5.9 µM

CCCCCCCCCCCCCCCCN(C)CCCP(=O)(O)O [Compound 1v, 3-(N-Methyl-N—Hexadecylamino)Propylphosphonic Acid]
MTC (maximum tolerated concentration) (RBL-2H3 cells [1]; [3]): 200 µM | SI (safety index, ratio MTC/IC50) (RBL-2H3 cells [1]; [5]): 22.7 | IC50 (RBL-2H3 cells [2]; Rattus norvegicus): 8.8 µM

Br.CCCCCCCCCCCCCCCCN(C)CCCP(=O)(OCC)OCC [Compound 1w, 3-(N-Methyl-N—Hexadecylamino)Propylphosphonic Acid Diethylester Hydrobromide]
MTC (maximum tolerated concentration) (RBL-2H3 cells [1]; [3]): 200 µM | SI (safety index, ratio MTC/IC50) (RBL-2H3 cells [1]; [5]): 29.0 | IC50 (RBL-2H3 cells [2]; Rattus norvegicus): 6.9 µM

Br.CCCCCCCCCCCCCCN(C)CCCP(=O)(OCC)OCC [Compound 1x, 3-(N-Methyl-N-Tetradecylamino)Propylphosphonic Acid Diethyiester Hydrobromide]
MTC (maximum tolerated concentration) (RBL-2H3 cells [1]; [3]): 100 µM | SI (safety index, ratio MTC/IC50) (RBL-2H3 cells [1]; [5]): 18.2 | IC50 (RBL-2H3 cells [2]): 5.5 µM

CCCCCCCCCCCCCCCC[N+]1(CCCS(=O)(=O)[O-])CCCCC1 [Compound 2a, N—Hexadecyl-N-(3-Sulfonatopropyl)Piperidinium]
MTC (maximum tolerated concentration) (RBL-2H3 cells [1]; [3]): 50 µM | SI (safety index, ratio MTC/IC50) (RBL-2H3 cells [1]; [5]): 11.1 | IC50 (RBL-2H3 cells [2]; Rattus norvegicus): 4.5 µM

CCCCCCCCCCCCCCCC[N+]1(CCCS(=O)(=O)[O-])CCC(O)CC1 (centres unmarked) [Compound 2b, 1-Hexadecyl-1-(3-Sulfonatopropyl)-4-Hydroxypiperidinium]
MTC (maximum tolerated concentration) (RBL-2H3 cells [1]; [3]): 50 µM | SI (safety index, ratio MTC/IC50) (RBL-2H3 cells [1]; [5]): 11.6 | IC50 (RBL-2H3 cells [2]; Rattus norvegicus): 4.3 µM

CCCCCCCCCCCCCCCCOP(=O)([O-])OCC[N+](C)(C)C [Miltefosine, reference compound]
MTC (maximum tolerated concentration) (RBL-2H3 cells [1]; rat): 25 µM | SI (safety index, ratio MTC/IC50) (RBL-2H3 cells [1]; rat): 6.0 | IC50 (RBL-2H3 cells [2]; Rattus norvegicus): 4.2 µM
